Experimental data from ChEMBL document CHEMBL1138641, “2-(4-Methoxyphenoxy)-5-nitro-N-(4-sulfamoylphenyl)benzamide activates Kir6.2/SUR1 K(ATP) channels” (Bioorg Med Chem Lett, 2004).

How the values were obtained:
[1] = test system: Beta-TC6; assay: Concentration required for inhibition of glucose stimulated insulin release from beta TC6 cells; assay type: functional, cell-based, Mus musculus
[2] = inhibitory concentration required for repolarization of beta cell membrane potential in presence of 10 mM glucose; assay type: functional, Homo sapiens
[3] = test system: Beta-TC6; assay: Percent efficacy for inhibition of glucose stimulated insulin release from beta TC6 cells; assay type: functional, Mus musculus
[4] = test system: HEK293; assay: Potency by repolarisation of tolbutamide-depolarised membrane potential in HEK 293 cells; conditions: Homo sapiens
[5] = Mus musculus, Beta-TC6, read-out: IC50

CC(C)NC1=NS(=O)(=O)c2cc(Cl)ccc2N1
IC50 [1, 5]: 0.46 µM | IC50 ([2]; Homo sapiens, read-out: IC50): 0.25 µM | Efficacy [3]: 75% | IC50 [4]: 0.8 µM

COc1ccc(NC(=O)c2cc([N+](=O)[O-])ccc2Oc2ccc(OC)cc2)cc1
IC50 [1, 5]: 1.6 µM | IC50 ([2]; Homo sapiens, read-out: IC50): 3.4 µM | Efficacy [3]: 73%

COc1ccc(Oc2ccc([N+](=O)[O-])cc2C(=O)Nc2ccccc2S(N)(=O)=O)cc1
IC50 [1, 5]: 10.4 µM | IC50 [2]: No significant activity | Efficacy [3]: 33%

CCN(C(=O)c1cc([N+](=O)[O-])ccc1Oc1ccc(OC)cc1)c1ccc(Cl)cc1
IC50 [1, 5]: 10.4 µM | IC50 ([2]; Homo sapiens, read-out: IC50): 8.3 µM | Efficacy [3]: 56%

COc1ccc(Oc2ccc([N+](=O)[O-])cc2C(=O)Nc2ccc(C(C)=O)cc2)cc1
IC50 [1, 5]: 1.12 µM | IC50 ([2]; Homo sapiens, read-out: IC50): 8.1 µM | Efficacy [3]: 75%

COc1ccc(Nc2ccc([N+](=O)[O-])cc2C(=O)Nc2ccc(S(N)(=O)=O)cc2)cc1
IC50 [1, 5]: 26.6 µM | IC50 [2]: No significant activity | Efficacy [3]: 1%

COc1ccc(NC(=O)c2cc(C#N)ccc2Oc2ccc(OC)cc2)cc1
IC50 [1, 5]: 48.5 µM | IC50 ([2]; Homo sapiens, read-out: IC50): 2.5 µM | Efficacy [3]: 17%

COc1ccc(Oc2ccc([N+](=O)[O-])cc2C(=O)Nc2ccc(F)cc2)cc1
IC50 [1, 5]: 5.67 µM | IC50 ([2]; Homo sapiens, read-out: IC50): 7.2 µM | Efficacy [3]: 52%

COc1ccc(NC(=O)c2ccccc2Oc2ccccc2)cc1
IC50 ([1]; beta-tc6): No significant activity | IC50 [2]: No significant activity

COc1ccc(Oc2ccc([N+](=O)[O-])cc2C(=O)Nc2cccc(S(N)(=O)=O)c2)cc1
IC50 [1, 5]: 20.5 µM | IC50 ([2]; Homo sapiens, read-out: IC50): 9.9 µM | Efficacy [3]: 31%

COc1ccc(Oc2ccc([N+](=O)[O-])cc2C(=O)Nc2ccc(S(N)(=O)=O)cc2)cc1
IC50 [1, 5]: 0.82 µM | IC50 ([2]; Homo sapiens, read-out: IC50): 1.8 µM | Efficacy [3]: 79% | IC50 [4]: 1.3 µM

COc1ccc(NC(=O)c2cc(N)ccc2Oc2ccc(OC)cc2)cc1
IC50 ([1]; beta-tc6): No significant activity | IC50 [2]: No significant activity

COc1ccc(Oc2ccc([N+](=O)[O-])cc2C(=O)N(C)c2ccc(Cl)cc2)cc1
IC50 [1, 5]: 25.7 µM | IC50 ([2]; Homo sapiens, read-out: IC50): 10.1 µM | Efficacy [3]: 33%

CC1=Nc2ccc(Cl)cc2S(=O)(=O)N1 [DIAZOXIDE]
IC50 [1, 5]: 23 µM | IC50 ([2]; Homo sapiens, read-out: IC50): 13.7 µM | Efficacy [3]: 25% | IC50 [4]: 33 µM

CC1(NC2=NS(=O)(=O)c3sc(Cl)cc3N2)CC1 [TIFENAZOXIDE]
IC50 [1, 5]: 0.25 µM | IC50 ([2]; Homo sapiens, read-out: IC50): 0.6 µM | Efficacy [3]: 73%
